Entries after “also recorded” stand apart in the source; their conditions may differ.
Tests used:
ASIC1 = biological target: T1, ASIC1 (Homo sapiens, UniProt P78348); conditions: read-out: IC 50 for ASIC1; cited from earlier work
T1 sequence (P78348 1-528): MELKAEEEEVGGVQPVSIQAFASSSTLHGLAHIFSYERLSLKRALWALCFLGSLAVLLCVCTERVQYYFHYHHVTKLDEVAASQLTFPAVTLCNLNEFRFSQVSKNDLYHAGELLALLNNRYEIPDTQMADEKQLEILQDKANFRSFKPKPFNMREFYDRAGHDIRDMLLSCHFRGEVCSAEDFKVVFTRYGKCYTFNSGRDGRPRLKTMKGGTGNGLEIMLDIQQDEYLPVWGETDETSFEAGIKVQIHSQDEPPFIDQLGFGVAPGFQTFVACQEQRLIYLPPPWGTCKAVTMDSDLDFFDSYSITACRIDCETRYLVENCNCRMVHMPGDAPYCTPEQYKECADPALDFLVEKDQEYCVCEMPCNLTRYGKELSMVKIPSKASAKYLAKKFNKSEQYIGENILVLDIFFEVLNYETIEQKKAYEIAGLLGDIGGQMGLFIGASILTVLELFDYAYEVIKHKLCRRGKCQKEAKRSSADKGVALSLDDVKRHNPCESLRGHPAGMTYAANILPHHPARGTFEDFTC

ASIC3 = biological target: T2, ASIC3 (Homo sapiens, UniProt Q9UHC3); conditions: cited from earlier work
T2 sequence (Q9UHC3 1-531): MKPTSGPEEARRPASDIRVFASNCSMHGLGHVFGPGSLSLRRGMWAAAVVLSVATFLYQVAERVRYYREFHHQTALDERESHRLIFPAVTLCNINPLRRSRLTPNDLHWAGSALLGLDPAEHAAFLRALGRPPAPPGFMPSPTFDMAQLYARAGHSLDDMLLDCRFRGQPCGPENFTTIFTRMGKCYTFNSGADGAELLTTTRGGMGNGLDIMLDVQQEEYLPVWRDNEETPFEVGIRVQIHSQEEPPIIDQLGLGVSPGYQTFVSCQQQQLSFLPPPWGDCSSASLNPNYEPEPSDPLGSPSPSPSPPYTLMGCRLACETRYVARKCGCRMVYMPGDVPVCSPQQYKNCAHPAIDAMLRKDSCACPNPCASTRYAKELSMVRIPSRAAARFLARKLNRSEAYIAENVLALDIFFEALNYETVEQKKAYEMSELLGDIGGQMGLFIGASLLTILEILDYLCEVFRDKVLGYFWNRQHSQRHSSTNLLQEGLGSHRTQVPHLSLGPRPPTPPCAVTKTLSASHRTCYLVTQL

DRG neurons [1] = assay: Calcium imaging of cultured DRG neurons: antagonist effects on responses to capsaicin, ATP or KCl (selectivity control); assay type: cell-based, mouse
Excerpt: (§1) Harvesting/culturing cells/loading cells: Thirty-nine three week old (4 wells of DRG neurons plated from each mouse), C57Bl/6 mice were anesthetized with isoflurane, and euthanized by cervical dislocation. Dorsal root ganglia (DRG) from lumbar regions were removed into HBSS, treated with trypsin, washed with MEM (Invitrogen 51200-038) containing 10% FBS (Hyclone), 2.4% glucose, 1% glutamax (Invitrogen 35050-061) and 1% penicillin/streptomycin (Atlanta Biological B2110). DRG were triturated, pre-plated and incubated at 37° C. for one hour to reduce non-neuronal cells. Neurons were gently swirled and centrifuged (110×g, 5 min). Cells were removed, re-suspended and 30 μL plated onto the 4 center wells of 24-well plates coated with poly-L-lysine and laminin. A 0.5 mm thick silicone ring with a 4 mm diameter opening sealed to the surface of each well reduced the plating area in each well. Following 1 hour, wells were filled with 37° C. culture medium with 10 ng/mL GDNF (Glial Derived Neurotrophic Factor) (Preprotech 450-10). Sixteen to 23 hours after plating, cultures were loaded with Fura-2 AM (Molecular Probes F-1221) fluorescent dye for 40-60 minutes, then washed with pH 7.4 oxygenated observation medium containing no additional ATP (145 mM NaCl, 5 mM KCl, 2 mM CaCl2, 1 mM MgCl2, 1 mM Citrate, 10 mM glucose, 10 mM MES, 10 mM HEPES). The final well volume was 500 μL.
(§2) JYL-1422, LJO-328, A-317567, and a selected stereo isomer of A-317567 were each dissolved in 5% DMSO/95% water and a few μL of 1M HCl to a concentration of 10 mM, then quick frozen and stored at −20° C. Aliquots of antagonists were thawed and diluted to the appropriate concentrations just prior to use in the experiments. The strong buffers maintained the pH of these antagonists when mixed with metabolites.
(§3) Imaging procedure: All experiments were performed at room temperature (20-25° C.) to allow correspondence with most previous experiments using calcium imaging and patch clamp of DRG neurons. Cells were imaged using the Meta Imaging Series Metafluor program (Universal Imaging Corp). All cells identifiable as neurons based on their round shape, clear, single nucleus, were selected from a phase image of the field. At the end of each experiment, 200 nM capsaicin was applied, followed by a wash, and then applied 50 mM KCl. Capsaicin activation indicated the presence of TRPV1 receptors on neurons, and KCl ensured that recorded objects were active neurons, and established the maximal calcium response in each neuron. For some neurons the administration of capsaicin abolished the potential for responding to KCl, thus either a response to capsaicin or to KCl indicated viability of neurons, and only viable neurons were included in analyses.
For each field an average of 151+10 cells were tracked real-time. […]

DRG neurons [2] = assay: Calcium imaging of cultured DRG neurons: antagonist effects on responses to increasing metabolites (protons, lactate, ATP); assay type: cell-based, mouse
Excerpt: as §1
(§4) Combinations of metabolites applied to mimic naturally occurring conditions: When applied in an escalating series to mimic increases in metabolites that occur with muscle exercise and ischemic muscle exercise, the metabolite values shown in Table 1 were used. The values associated with pH 7.6 are at or below those normally found at rest in the mouse. The values at 7.4 approximate those found at rest. Generally, the low metabolite values associated with pH higher than 7.0 are likely to be non-noxious, while higher metabolite values at pH 7.0 and lower may be associated with pain. These values should bracket the physiological range of metabolites found in skeletal muscle with the last two values (those associated with 6.4 and 6.2) being higher than the physiological range (Bangsbo et al., 1993; Bangsbo et al., 2001; Li et al., 2003; Li et al., 2005; Reeh and Kress, 2001; Steinhagen et al., 1976).
as §2, §3
For each field an average of 151+10 cells were tracked real-time. […] FIGS. 1 and 2 show traces from these graphs. […]

ASIC2 = biological target: T3, ASIC2 (Homo sapiens, UniProt Q16515); conditions: read-out: IC 50 for ASIC2; cited from earlier work
T3 sequence (Q16515 1-512): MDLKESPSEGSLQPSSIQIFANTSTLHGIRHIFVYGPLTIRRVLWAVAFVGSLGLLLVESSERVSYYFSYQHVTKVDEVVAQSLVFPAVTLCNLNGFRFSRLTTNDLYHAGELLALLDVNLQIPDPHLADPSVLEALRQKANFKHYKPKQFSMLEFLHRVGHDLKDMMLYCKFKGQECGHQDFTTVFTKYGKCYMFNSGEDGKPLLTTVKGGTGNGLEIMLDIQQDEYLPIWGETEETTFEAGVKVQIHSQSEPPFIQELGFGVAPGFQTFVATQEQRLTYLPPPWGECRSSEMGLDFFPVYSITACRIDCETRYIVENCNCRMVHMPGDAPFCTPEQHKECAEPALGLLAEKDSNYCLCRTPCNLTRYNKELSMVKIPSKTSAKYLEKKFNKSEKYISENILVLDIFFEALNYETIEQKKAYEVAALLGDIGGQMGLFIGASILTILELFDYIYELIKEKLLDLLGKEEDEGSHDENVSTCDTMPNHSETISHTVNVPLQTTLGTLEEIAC

DRG neurons [3] = assay: Calcium imaging of cultured DRG neurons: percent of neurons responding to applied metabolites or capsaicin; assay type: cell-based, mouse; conditions: for ability to enhance metabolite responses: ATP: 1 μM
Excerpt: as §1
Choice and concentrations of metabolites: Because the afferent receptors in muscle have been reported to be on the outside of blood vessels supplying muscle, values obtained for muscle interstitium from experiments using cat, rat, and human for muscle contraction evoked by mild to moderate to extreme exercise were used.
Protons (pH): Values between 7.6 and 6.2 were used spanning the range found in skeletal and cardiac muscle in mammals from above resting values to those found with injury and disease.
Lactate: 1-50 mM lactate was used, a range of values that spans from rest to ischemia in muscles of humans and rats and mice.
ATP: ATP concentrations in muscle interstitium increase from 300 nM at rest to 5 μM with ischemic muscle contraction (Hellsten et al., 1998; Li et al., 2003; Li et al., 2005). These levels were used in the experiments described below. […] To allow for physiological levels of desensitization of possible P2X receptors, freshly prepared ATP at 300 nM was used for at least 30 seconds before any further increases in ATP combined with other metabolites, to establish resting conditions in DRG neurons in these experiments. […] Also used were pH 6.0 and 4.0 without additional increases in metabolites to confirm that the imaging experiments could replicate recent reports using patch-clamp techniques (Leffler et al., 2006).
as §4
Di-I labeling: In some experiments, neurons were identified as innervating muscle by prior muscle labeling with Di-I. Twelve 7-9 day old mice were anesthetized by cooling. […]

## CC(C)C1c2cc(C3CC3c3ccc4cc(C(=N)N)ccc4c3)ccc2CCN1C (stereo not shown) [A-317567]
ASIC1
  IC50: 2 µM
ASIC3; read-out: IC 50 for ASIC3
  IC50: 9.5 µM
DRG neurons [1]; any dose, applied for 10 minutes or less
  effect on responses to capsaicin, ATP or KCl: caused no decrements in calcium responses evoked by capsaicin, ATP or KCl; also recorded: did not decrease responses to capsaicin, ATP, or KCl; also recorded: did not block DRG neuron capsaicin responses, KCl responses, or responses to 5 μM ATP
DRG neurons [1]; applied for more than 20 minutes
  effect on responses to capsaicin, ATP or KCl: caused some decrements in these responses
DRG neurons [2]; antagonist 100 μM, metabolites increased as high as pH 6.6, lactate 50 mM, ATP 5
  DRG neuron responses to metabolites blocked: ~80%
DRG neurons [2]; antagonist 100 μM, p<0.0001
  responses to metabolites, % of the control level: 23%
DRG neurons [2]; antagonist 200 μM
  effect on responses to metabolites: blocked all responses to metabolites
ASIC2
  IC50: 9.1 µM

## Nc1ncnc2c1ncn2[C@@H]1O[C@H](COP(=O)(O)OP(=O)(O)O)[C@@H](O)[C@H]1O [ADP]
DRG neurons [3]
  ability to enhance metabolite responses: not capable of enhancing metabolite responses

## Nc1ncnc2c1ncn2[C@@H]1O[C@H](COP(=O)(O)OP(=O)(O)OP(=O)(O)O)[C@@H](O)[C@H]1O [ATP]
DRG neurons [3]; ATP with lactate
  percent of DRG neurons responding: 4.7%
DRG neurons [3]
  ability to enhance metabolite responses: capable of enhancing metabolite responses when freshly prepared
DRG neurons [3]; graded series, going from 2 μM to 5 μM
  percent of DRG neurons activated: approximately 16%
DRG neurons [3]; gradually increased from resting amounts, only at concentrations higher than 2 μM
  percent of DRG neurons activated: < 11%
DRG neurons [3]; increasing graded series from 300 nM, when 2 μM was reached
  percent of DRG neurons activated: less than 10%
DRG neurons [3]; pH 7.0-ATP 1 μM (increasing protons with addition of ATP)
  percent of DRG neurons responding: 11.2%

## Cc1nc(N=Nc2ccc(S(=O)(=O)O)cc2S(=O)(=O)O)c(COP(=O)(O)O)c(C=O)c1O [PPADS]
DRG neurons [2]; antagonist 300 μM
  effect on responses to increasing metabolites: eliminated most responses to increasing metabolites
DRG neurons [2]; antagonist 200-300 μM, doses effective at all P2X receptors
  effect on responses to increasing metabolites: eliminated nearly all responses to increasing metabolites

## CC(O)C(=O)O (stereo not shown) [lactate]
DRG neurons [3]; 50 mM, pH 6.6
  percent of DRG neurons activated: 9.5%
DRG neurons [3]; 5-15 mM combined with protons at pH 7.3-6.8
  percent of DRG neurons activated: less than 4%
DRG neurons [3]; alone, 1-50 mM, pH 7.4
  DRG neuron responses: caused no increases in DRG neuron responses; also recorded: activated very few mouse DRG neurons
DRG neurons [3]; lactate plus protons, all levels of metabolites included
  total percent of DRG neurons activated: more than 10%

## APETx2
ASIC3
  inhibition of ASIC3 and ASIC3 heteromers: can selectively inhibit ASIC3 and ASIC3 heteromers

— patent publication US20110262395A1, “SENSORY RECEPTORS FOR CHRONIC FATIGUE AND PAIN AND USES THEREOF” (UNIVERSITY OF UTAH RESEARCH FOUNDATION, priority 2008, published 2011)
